Source: patent publication US20250230193A1, “CYCLIC COMPOUND HAVING SELECTIVE KRAS INHIBITORY EFFECT ON HRAS AND NRAS” (CHUGAI SEIYAKU KABUSHIKI KAISHA, priority 2022, published 2025)
*1 amine or outer side, *2 acyl side, *3 side chain or, on linkers, in order; H or OH if unused. Where a SMILES comes first, the peptide text is derived from it. Bridges are numbered along the chain shown (N, C = ends). [ ]: non-standard residue; d: D form. hPhe(3,5-F2-4-CF3) = N[C@@H](CCc1cc(F)c(C(F)(F)F)c(F)c1)C(=O)O; NPrPhe(4-CF3) = CCCN[C@@H](Cc1ccc(C(F)(F)F)cc1)C(=O)O; X16 = O=C([C@@H](N[*:1])C1CC(F)(F)C1)[*:2]; NMeGly(cPent) = CN[C@H](C(=O)O)C1CCCC1; NMeD = CN[C@@H](CC(=O)O)C(=O)O; NMeL = CN[C@@H](CC(C)C)C(=O)O; Ac5c = NC1(C(=O)O)CCCC1; Sar = CNCC(=O)O

Key:
[1] = molecular target: GDP-bound NRAS wild-type protein (Homo sapiens, UniProt P01111); assay: Binding to NRAS by surface plasmon resonance (SPR), Single Cycle Kinetics; details: for NRAS/KRAS (ratio of KD value with respect to NRAS to KD value with respect to KRAS): GDP-bound NRAS wild-type vs GDP-bound KRAS wild-type
[2] = molecular target: GDP-bound HRAS wild-type protein (Homo sapiens, UniProt P01112); assay: Binding to HRAS by surface plasmon resonance (SPR), Single Cycle Kinetics; details: for HRAS/KRAS (ratio of KD value with respect to HRAS to KD value with respect to KRAS): GDP-bound HRAS wild-type vs GDP-bound KRAS wild-type
[3] = SPR, GDP-bound wild-type proteins

Chain of GDP-bound HRAS wild-type protein (P01112 whole entry): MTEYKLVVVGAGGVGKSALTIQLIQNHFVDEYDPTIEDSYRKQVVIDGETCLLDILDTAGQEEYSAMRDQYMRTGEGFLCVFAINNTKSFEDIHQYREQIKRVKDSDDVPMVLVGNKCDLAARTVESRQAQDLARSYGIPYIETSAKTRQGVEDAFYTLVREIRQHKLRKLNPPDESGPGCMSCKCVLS
Chain of GDP-bound NRAS wild-type protein (P01111 whole entry): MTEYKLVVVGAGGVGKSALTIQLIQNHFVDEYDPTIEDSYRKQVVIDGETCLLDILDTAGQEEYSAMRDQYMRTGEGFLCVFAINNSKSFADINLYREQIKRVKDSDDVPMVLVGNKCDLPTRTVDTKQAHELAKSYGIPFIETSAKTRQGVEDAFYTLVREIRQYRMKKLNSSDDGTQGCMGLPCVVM

**Q.** Which results are given for `CCO[C@@H]1C[C@H]2C(=O)NC3(CCC3)C(=O)N(C)[C@@H](C3CCCC3)C(=O)N(C)[C@H](C(=O)N(C)C)CC(=O)N(C)[C@@H](CC3CCCC3)C(=O)N[C@@H]([C@@H](C)CC)C(=O)N(C)CC(=O)N(C)[C@H]3C/C=C\CCN(C3=O)[C@@H](Cc3ccc(C)cc3)C(=O)N(C)CC(=O)N[C@@H](CCc3cc(F)c(CC)c(OC)c3)C(=O)N2C1` [PP2674]?
**A.** NRAS/KRAS (ratio of KD value with respect to GDP-bound NRAS wild-type protein to KD value with respect to KRAS) ([1]; class symbols): A (a compound having 10 or more and less than 20 is denoted as A); HRAS/KRAS (ratio of KD value with respect to GDP-bound HRAS wild-type protein to KD value with respect to KRAS) ([2]; class symbols): A (a compound having 10 or more and less than 20 is denoted as A)

**Q.** How did the “NRAS/KRAS (ratio of KD value with respect to GDP-bound NRAS wild-type protein to KD value with respect to KRAS)” value [1, 3] turn out when `CCC[C@H]1C(=O)N[C@@H]([C@@H](C)CC)C(=O)N(C)CC(=O)N(C)[C@H]2C/C=C\CCN(C2=O)[C@@H](Cc2ccc(C(F)(F)F)cc2)C(=O)N(C)CC(=O)N[C@@H](CCc2ccc(C(F)(F)F)c(Cl)c2)C(=O)N2C[C@H](OCC)C[C@H]2C(=O)NC2(CC(C)(C)C2)C(=O)N(C)[C@@H]([C@@H](C)CC)C(=O)N(C)[C@H](C(=O)N(C)C)CC(=O)N1C` [PP2973] was run?
**A.** Its value is “A (a compound having 10 or more and less than 20 is denoted as A)”.

**Q.** What about the “HRAS/KRAS (ratio of KD value with respect to GDP-bound HRAS wild-type protein to KD value with respect to KRAS)” value [2, 3] of the same molecule?
**A.** The value was “A (a compound having 10 or more and less than 20 is denoted as A)”.

**Q.** Which “NRAS/KRAS (ratio of KD value for GDP-bound NRAS wild-type protein to KD value for KRAS)” value ([1]; SPR, KD ratio class) does the source give for `CCO[C@@H]1C[C@H]2C(=O)NC3(CCC3)C(=O)N(C)[C@@H](C3CCCC3)C(=O)N(C)[C@H](C(=O)N(CC)CC)CC(=O)N(C)[C@@H](C)C(=O)N[C@@H]([C@@H](C)CC)C(=O)N(C)CC(=O)N(C)[C@H]3C/C=C\CCN(C3=O)[C@@H](Cc3ccc(C(F)(F)F)cc3)C(=O)N(C)CC(=O)N[C@@H](CCc3cc(F)c(C(F)(F)F)c(F)c3)C(=O)N2C1` [PP1308] here?
**A.** Its value is “A (a compound having 10 or more and less than 20 is denoted as A)”.

**Q.** And the “HRAS/KRAS (ratio of KD value for GDP-bound HRAS wild-type protein to KD value for KRAS)” value ([2]; SPR, KD ratio class)?
**A.** The value was “A (a compound having 10 or more and less than 20 is denoted as A)”.

**Q.** Which results are given for `CCO[C@@H]1C[C@H]2C(=O)NC3(CC(C)(C)C3)C(=O)N(C)[C@@H](C(CC)CC)C(=O)N(C)[C@H](C(=O)N(C)C)CC(=O)N(C)[C@H]3CCCC/C=C/c4ccc(cc4)C[C@@H](C(=O)N(C)CC(=O)N[C@@H](CCc4cc(F)c(C(F)(F)F)c(F)c4)C(=O)N2C1)N1CC/C=C\C[C@@H](C1=O)N(C)C(=O)CN(C)C(=O)[C@H]([C@@H](C)CC)NC3=O` [PP3044]?
**A.** NRAS/KRAS (ratio of KD value with respect to GDP-bound NRAS wild-type protein to KD value with respect to KRAS) [1, 3]: AA (a compound having 20 or more is denoted as AA); HRAS/KRAS (ratio of KD value with respect to GDP-bound HRAS wild-type protein to KD value with respect to KRAS) [2, 3]: A (a compound having 10 or more and less than 20 is denoted as A)

**Q.** Which “NRAS/KRAS (ratio of KD value with respect to NRAS to KD value with respect to KRAS)” value ([1]; SPR) does the source give for `CCC[C@H]1C(=O)N[C@@H](C2CCCC2)C(=O)N(C)CC(=O)N(C)[C@H]2C/C=C\CCN(C2=O)[C@@H](Cc2ccc(C)cc2)C(=O)N(C)CC(=O)N[C@@H](CCc2ccc(C(F)(F)F)c(Cl)c2)C(=O)N2C[C@H](OCC)C[C@H]2C(=O)NC2(CC(C)(C)C2)C(=O)N(C)[C@@H](CC(C)C)C(=O)N(C)[C@H](C(=O)N(C)C)CC(=O)N1C` [PP2190] here?
**A.** The value was “A (a compound having 10 or more and less than 20 is denoted as A)”.

**Q.** What about the “HRAS/KRAS (ratio of KD value with respect to HRAS to KD value with respect to KRAS)” value ([2]; SPR) of the same molecule?
**A.** The value was “A (a compound having 10 or more and less than 20 is denoted as A)”.

**Q.** Which “NRAS/KRAS (ratio of KD value with respect to NRAS to KD value with respect to KRAS)” value ([1]; SPR) does the source give for `CCO[C@@H]1C[C@H]2C(=O)NC3(CC(C)(C)C3)C(=O)N(C)[C@@H](C(CC)CC)C(=O)N(C)[C@H](C(=O)N3CCCC3)CC(=O)N(C)[C@@H](COC)C(=O)N[C@@H]([C@@H](C)CC)C(=O)N(C)CC(=O)N(C)[C@H]3C/C=C\CCN(C3=O)[C@@H](Cc3ccc(C(F)(F)F)cc3)C(=O)N(C)CC(=O)N[C@@H](CCc3ccc(Cl)c(Cl)c3)C(=O)N2C1` [PP2174] here?
**A.** The value was “AA (a compound having 20 or more is denoted as AA)”.

**Q.** And the “HRAS/KRAS (ratio of KD value with respect to HRAS to KD value with respect to KRAS)” value ([2]; SPR)?
**A.** The value was “A (a compound having 10 or more and less than 20 is denoted as A)”.

**Q.** How did the “NRAS/KRAS (ratio of KD value with respect to NRAS to KD value with respect to KRAS)” value ([1]; KD ratio, SPR) turn out when `CCO[C@@H]1C[C@H]2C(=O)NC3(CCC3)C(=O)N(C)[C@@H](C3CCCC3)C(=O)N(C)[C@H](C(=O)N(C)C)CC(=O)N(C)[C@@H](Cc3ccc(C)cc3)C(=O)N[C@@H]([C@@H](C)CC)C(=O)N(C)CC(=O)N(C)[C@H]3CCCCCN(C3=O)[C@@H](Cc3ccc(C(F)(F)F)cc3)C(=O)N(C)CC(=O)N[C@@H](CCc3cc(F)c(C(F)(F)F)c(F)c3)C(=O)N2C1` [PP0943] was run?
**A.** Its value is “B (a compound having 3 or more and less than 10 is denoted as B)”.

**Q.** What about the “HRAS/KRAS (ratio of KD value with respect to HRAS to KD value with respect to KRAS)” value ([2]; KD ratio, SPR) of the same molecule?
**A.** Its value is “B (a compound having 3 or more and less than 10 is denoted as B)”.

**Q.** Which results are given for `CCCN1C(=O)CN(C)C(=O)CN(C)C(=O)[C@H](C2CC(F)(F)C2)NC(=O)[C@H](CC(C)C)N(C)C(=O)C[C@@H](C(=O)N(C)C)N(C)C(=O)[C@H](C2CCCC2)N(C)C(=O)C2(CCCC2)NC(=O)[C@@H]2CCCN2C(=O)[C@H](CCc2cc(F)c(C(F)(F)F)c(F)c2)NC(=O)CN(C)C(=O)[C@@H]1Cc1ccc(C(F)(F)F)cc1` [PP0748] ([NMeL][X16][Sar][Sar][NPrPhe(4-CF3)][Sar][hPhe(3,5-F2-4-CF3)]P[Ac5c][NMeGly(cPent)][NMeD]-NMe2; lactam N-11)?
**A.** NRAS/KRAS (ratio of KD value with respect to GDP-bound NRAS wild-type protein to KD value with respect to KRAS) ([1]; SPR): B (a compound having 3 or more and less than 10 is denoted as B); HRAS/KRAS (ratio of KD value with respect to GDP-bound HRAS wild-type protein to KD value with respect to KRAS) ([2]; SPR): B (a compound having 3 or more and less than 10 is denoted as B)
